Results: patent publication US10703764B2, “Benzopiperazine compositions as BET bromodomain inhibitors” (FORMA Therapeutics, Inc., priority 2013, dated 2020)

Columns and labels:
BRD4 BD1 = biological target: T1, BRD4 BD1 (Homo sapiens, UniProt O60885); experiment: AlphaScreen binding assay, BRD4 Bromodomain 1
T1 construct: made in house
Procedure, shortened: (§1)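 An AlphaScreen competition format was used with His-BRD4 BD1 or BD2 and biotin-H4 K5/8/12/16-acetyl peptide, each at matched final levels of 50 nM (BD1) or 100 nM (BD2). Incubation in HEPES/NaCl buffer with 0.1% BSA and 0.01% Triton X-100 ran ≥1 h before IC50 determination.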

MV4-11 cells = experiment: Oncology cell growth assay (3-day proliferation, CellTiter-Glo); format: cell-based; conditions: Homo sapiens, MV4-11, 72 h, AML cell line MV4-11, 72 hours, compounds grouped by IC50 range, read-out: MV4-11 IC50 (inhibition of proliferation, gIC50)
Procedure, shortened: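 MV4-11 AML cells (RPMI 1640, 10% FBS) plated at 3000 cells/well and exposed 72 h to compound at final 10 to 0.0045 μM (3-fold series). Viability read by CellTiter-Glo luminescence; gIC50 from four-parameter logistic fit between DMSO control and no-cell background.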

BRD4 BD2 = biological target: T2, BRD4 BD2 (Homo sapiens, UniProt O60885); experiment: AlphaScreen binding assay, BRD4 Bromodomain 2
T2 construct: made in house
Procedure, shortened: as §1

| SMILES | IC50 (BRD4 BD1) [nM] | IC50 (MV4-11 cells) [nM] | IC50 (BRD4 BD2) [nM] |
| --- | --- | --- | --- |
| CC(=O)N1c2ccc(-c3ccc(N4CCOCC4)cc3)cc2N(C(=O)OC(C)C)C[C@@H]1C [Example I-1061] | 1000 to 10000 | > 500 | 50 to 500 |
| CC(=O)N1c2ccc(-c3ccc(S(=O)(=O)C(C)C)cc3)cc2N(C(=O)C2CC2)C[C@@H]1C [Example I-1062] | 1000 to 10000 | > 500 | 50 to 500 |
| CC(=O)N1c2ccc(-c3ccc(S(=O)(=O)C(C)C)cc3)cc2N(C(=O)C2CCC2)C[C@@H]1C [Example I-1063] | 1000 to 10000 | > 500 | 50 to 500 |
| CCOC(=O)N1C[C@H](C)N(C(C)=O)c2ccc(-c3ccc(S(=O)(=O)C(C)C)cc3)cc21 [Example I-1064] | 1000 to 10000 | > 500 | 50 to 500 |
| CC(=O)N1c2ccc(-c3ccc(S(=O)(=O)C(C)C)cc3)cc2N(C(=O)OC(C)C)C[C@@H]1C [Example I-1065] | 100 to 1000 | 100 to 500 | 50 to 500 |
| CC(=O)N1c2ccc(-c3ccc(S(N)(=O)=O)cc3)cc2N(C(=O)C2CC2)C[C@@H]1C [Example I-1066] | 1000 to 10000 | > 500 | 50 to 500 |
| CC(=O)N1c2ccc(-c3ccc(S(N)(=O)=O)cc3)cc2N(C(=O)C2CCC2)C[C@@H]1C [Example I-1067] | > 10000 | > 500 | 50 to 500 |
| CCOC(=O)N1C[C@H](C)N(C(C)=O)c2ccc(-c3ccc(S(N)(=O)=O)cc3)cc21 [Example I-1068] | 1000 to 10000 | > 500 | 50 to 500 |
| CC(=O)N1c2ccc(-c3ccc(S(N)(=O)=O)cc3)cc2N(C(=O)OC(C)C)C[C@@H]1C [Example I-1069] | 100 to 1000 | 100 to 500 | 50 to 500 |
| CCCS(=O)(=O)c1ccc(-c2ccc3c(c2)N(C(=O)C2CC2)C[C@H](C)N3C(C)=O)cc1 [Example I-1070] | 1000 to 10000 | 100 to 500 | 50 to 500 |
| CCCS(=O)(=O)c1ccc(-c2ccc3c(c2)N(C(=O)C2CCC2)C[C@H](C)N3C(C)=O)cc1 [Example I-1071] | 1000 to 10000 | 100 to 500 | 50 to 500 |
| CCCS(=O)(=O)c1ccc(-c2ccc3c(c2)N(C(=O)OCC)C[C@H](C)N3C(C)=O)cc1 [Example I-1072] | 100 to 1000 | 100 to 500 | 50 to 500 |
| CCCS(=O)(=O)c1ccc(-c2ccc3c(c2)N(C(=O)OC(C)C)C[C@H](C)N3C(C)=O)cc1 [Example I-1073] | 100 to 1000 | 100 to 500 | 50 to 500 |
| CC(=O)N1c2ccc(-c3ccc(S(=O)(=O)CC4CC4)cc3)cc2N(C(=O)C2CC2)C[C@@H]1C [Example I-1074] | 1000 to 10000 | > 500 | 50 to 500 |
| CC(=O)N1c2ccc(-c3ccc(S(=O)(=O)CC4CC4)cc3)cc2N(C(=O)C2CCC2)C[C@@H]1C [Example I-1075] | 1000 to 10000 | > 500 | 50 to 500 |
| CCOC(=O)N1C[C@H](C)N(C(C)=O)c2ccc(-c3ccc(S(=O)(=O)CC4CC4)cc3)cc21 [Example I-1076] | 1000 to 10000 | > 500 | 50 to 500 |
| CC(=O)N1c2ccc(-c3ccc(S(=O)(=O)CC4CC4)cc3)cc2N(C(=O)OC(C)C)C[C@@H]1C [Example I-1077] | 1000 to 10000 | 100 to 500 | 50 to 500 |
| CC(=O)N1c2ccc(-c3ccc(S(=O)(=O)CC(C)C)cc3)cc2N(C(=O)C2CC2)C[C@@H]1C [Example I-1078] | 1000 to 10000 | 100 to 500 | 50 to 500 |
| CC(=O)N1c2ccc(-c3ccc(S(=O)(=O)CC(C)C)cc3)cc2N(C(=O)C2CCC2)C[C@@H]1C [Example I-1079] | 1000 to 10000 | > 500 | 50 to 500 |

| SMILES | IC50 (BRD4 BD1) [nM] | IC50 (MV4-11 cells) [nM] | IC50 (BRD4 BD2) [nM] |
| --- | --- | --- | --- |
| CCOC(=O)N1C[C@H](C)N(C(C)=O)c2ccc(-c3ccc(S(=O)(=O)CC(C)C)cc3)cc21 [Example I-1080] | 1000 to 10000 | > 500 | 50 to 500 |
| CC(=O)N1c2ccc(-c3ccc(S(=O)(=O)CC(C)C)cc3)cc2N(C(=O)OC(C)C)C[C@@H]1C [Example I-1081] | 1000 to 10000 | > 500 | 50 to 500 |
| CC(=O)N1c2ccc(-c3ccc(S(C)(=O)=O)c(F)c3)cc2N(C(=O)C2CC2)C[C@@H]1C [Example I-1082] | 1000 to 10000 | > 500 | 50 to 500 |
| CC(=O)N1c2ccc(-c3ccc(S(C)(=O)=O)c(F)c3)cc2N(C(=O)C2CCC2)C[C@@H]1C [Example I-1083] | 1000 to 10000 | > 500 | 50 to 500 |
| CCOC(=O)N1C[C@H](C)N(C(C)=O)c2ccc(-c3ccc(S(C)(=O)=O)c(F)c3)cc21 [Example I-1084] | 1000 to 10000 | > 500 | 50 to 500 |
| CC(=O)N1c2ccc(-c3ccc(S(C)(=O)=O)c(F)c3)cc2N(C(=O)OC(C)C)C[C@@H]1C [Example I-1085] | 1000 to 10000 | > 500 | 50 to 500 |
| CC(=O)N1c2ccc(-c3cccc(S(=O)(=O)C4CC4)c3)cc2N(C(=O)C2CC2)C[C@@H]1C [Example I-1086] | 1000 to 10000 | > 500 | 50 to 500 |
| CC(=O)N1c2ccc(-c3cccc(S(=O)(=O)C4CC4)c3)cc2N(C(=O)C2CCC2)C[C@@H]1C [Example I-1087] | 1000 to 10000 | > 500 | 50 to 500 |
| CCOC(=O)N1C[C@H](C)N(C(C)=O)c2ccc(-c3cccc(S(=O)(=O)C4CC4)c3)cc21 [Example I-1088] | 1000 to 10000 | > 500 | 50 to 500 |
| CC(=O)N1c2ccc(-c3cccc(S(=O)(=O)C4CC4)c3)cc2N(C(=O)OC(C)C)C[C@@H]1C [Example I-1089] | 100 to 1000 | 100 to 500 | 50 to 500 |
| CCS(=O)(=O)c1cccc(-c2ccc3c(c2)N(C(=O)C2CC2)C[C@H](C)N3C(C)=O)c1 [Example I-1090] | 1000 to 10000 | > 500 | 50 to 500 |
| CCS(=O)(=O)c1cccc(-c2ccc3c(c2)N(C(=O)C2CCC2)C[C@H](C)N3C(C)=O)c1 [Example I-1091] | 1000 to 10000 | > 500 | 50 to 500 |
| CCOC(=O)N1C[C@H](C)N(C(C)=O)c2ccc(-c3cccc(S(=O)(=O)CC)c3)cc21 [Example I-1092] | 1000 to 10000 | > 500 | 50 to 500 |
| CCS(=O)(=O)c1cccc(-c2ccc3c(c2)N(C(=O)OC(C)C)C[C@H](C)N3C(C)=O)c1 [Example I-1093] | 100 to 1000 | 100 to 500 | 50 to 500 |
| CC(=O)N1c2ccc(-c3cc(Cl)cc(S(C)(=O)=O)c3)cc2N(C(=O)C2CC2)C[C@@H]1C [Example I-1094] | 1000 to 10000 | > 500 | > 500 |
| CC(=O)N1c2ccc(-c3cc(Cl)cc(S(C)(=O)=O)c3)cc2N(C(=O)C2CCC2)C[C@@H]1C [Example I-1095] | 1000 to 10000 | > 500 | > 500 |
| CCOC(=O)N1C[C@H](C)N(C(C)=O)c2ccc(-c3cc(Cl)cc(S(C)(=O)=O)c3)cc21 [Example I-1096] | 1000 to 10000 | > 500 | > 500 |
| CC(=O)N1c2ccc(-c3cc(Cl)cc(S(C)(=O)=O)c3)cc2N(C(=O)OC(C)C)C[C@@H]1C [Example I-1097] | 1000 to 10000 | > 500 | > 500 |
